Values quoted from earlier work, collected in patent US7981441B2, “Drug delivery systems using mesoporous oxide films” (The Board of Trustees of the Leland Stanford Junior …, priority 2004, dated 2011).

What was measured:
[1] = 4 to six acrylate sleeves each loaded with 800 micrograms
[2] = tested on: rabbit neointimal hyperplasia; details: pLA/pCL copolymer-coated stents containing 200 μg of paclitaxel; months after stent implantation
[3] = tested on: porcine neointimal hyperplasia; details: bare stent, dip-coating; 0, 0.2, 15 and 187 μg/stent; at 4 weeks

In the case of CCCCCC(=O)O[C@H]1C[C@H]2OC[C@@]2(OC(C)=O)[C@H]2[C@H](OC(=O)c3ccccc3)[C@]3(O)C[C@H](OC(=O)[C@H](O)[C@@H](NC(=O)c4ccccc4)c4ccccc4)C(C)=C([C@@H](OC(C)=O)C(=O)[C@]12C)C3(C)C [7-hexanoyltaxol], the “clinical outcome of study” value [1] is listed as “clinically unpromising”.

For CC(=O)O[C@H]1C(=O)[C@@]2(C)[C@H]([C@H](OC(=O)c3ccccc3)[C@]3(O)C[C@H](OC(=O)[C@H](O)[C@@H](NC(=O)c4ccccc4)c4ccccc4)C(C)=C1C3(C)C)[C@]1(OC(C)=O)CO[C@@H]1C[C@@H]2O [paclitaxel], the “effect on rabbit neointimal hyperplasia” value [2] is given as “virtually abolished” and the “effect on porcine neointimal hyperplasia” value [3] is given as “significant dose-dependent inhibition”.
